Measurements: patent US6376469B1, “Crystalline amrubicin hydrochloride” (Sumitomo Pharmaceuticals Company, Limited, priority 1997, dated 2002)

Experiment: Preservation stability of crystalline amrubicin hydrochlorides (80° C., 24 hours, HPLC)
Type: physicochemical
Conditions: for remaining amount (%): crystals kept at 80° C. for 24 hours, measured by high performance liquid chromatography, amount at the starting time defined as 100%, hydrochloride
Procedure: Preservation stability of crystalline amrubicin hydrochlorides
β-Type crystalline amrubicin hydrochloride obtained in Example 1 and α-type crystalline amrubicin hydrochloride obtained in Reference example 1 were each kept at a temperature of 80° C. for 24 hours. Thereafter, the remaining amount of crystals were measured using high performance liquid chromatography. The amount at the starting time is defined as 100%.

## CC(=O)[C@]1(N)Cc2c(O)c3c(c(O)c2[C@@H](OC2CC(O)C(O)CO2)C1)C(=O)c1ccccc1C3=O.Cl (stereo partly drawn) [β-type crystalline, (7S,9S)-9-acetyl-9-amino-7-[(2-deoxy-β-D-erythro-pentapyranosyl)oxy]-7,8,9, 10-tetrahydro-6,11-dihydroxy-5,12-naphthacenedione hydrochloride]
Conclusion from Table 2, 80° C. for 24 hours
  thermal stability (comparison of crystal forms): higher thermal stability than α-type crystalline amrubicin hydrochloride
  remaining amount (%): 100.4%

## CC(=O)[C@]1(N)Cc2c(O)c3c(c(O)c2[C@@H](OC2CC(O)C(O)CO2)C1)C(=O)c1ccccc1C3=O.Cl (stereo partly drawn) [α-type crystalline, (7S,9S)-9-acetyl-9-amino-7-[(2-deoxy-β-D-erythro-pentapyranosyl)oxy]-7,8,9, 10-tetrahydro-6,11-dihydroxy-5,12-naphthacenedione hydrochloride, reference compound]
  remaining amount (%): 92.2%
